Assay results from the NIST ThermoML archive (doi:10.1021/je200784y).

Details: Liquid, Ebulliometric method (Recirculating still)

CCOC(=O)OCC [diethyl carbonate]
Details | vapor or sublimation pressure [kPa]
354.68 K | 22.56
357.44 K | 25.03
359.95 K | 27.54
362.26 K | 29.99
364.46 K | 32.51
366.57 K | 35.05
368.45 K | 37.52
370.28 K | 40.03
372.04 K | 42.49
373.73 K | 45.05
375.26 K | 47.47
376.81 K | 50.04
378.22 K | 52.46
379.67 K | 55.03
381.03 K | 57.56
382.32 K | 59.95
383.6 K | 62.52
384.81 K | 64.97
385.98 K | 67.44
387.13 K | 70.02
388.28 K | 72.51
389.32 K | 74.96
390.35 K | 77.43
391.39 K | 79.97
392.45 K | 82.52
393.34 K | 84.84
394.36 K | 87.52
395.23 K | 89.81
396.21 K | 92.53
397.03 K | 94.89
397.96 K | 97.54
398.81 K | 100.03
399.27 K | 101.38
